The experiment has as its target HPK1 (Homo sapiens (Human), UniProt Q92918). Kind of experiment: HPK1 Lantha binding assay ("Lanth"). To be noted: binding assays; Morrison Ki fit. A digest of the protocol:
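TR-FRET binding competition using 2 nM HPK1, 2 nM Eu-anti-GST antibody and 15 nM Tracer222 at 23 °C. Compound was incubated 1 h with enzyme and antibody, then 1 h after tracer addition, with an 11-point 5-fold dilution series. Ki obtained from a Morrison fit that corrects for tracer concentration and Kd.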
Chain of HPK1 (Q92918 1-346 limits assumed): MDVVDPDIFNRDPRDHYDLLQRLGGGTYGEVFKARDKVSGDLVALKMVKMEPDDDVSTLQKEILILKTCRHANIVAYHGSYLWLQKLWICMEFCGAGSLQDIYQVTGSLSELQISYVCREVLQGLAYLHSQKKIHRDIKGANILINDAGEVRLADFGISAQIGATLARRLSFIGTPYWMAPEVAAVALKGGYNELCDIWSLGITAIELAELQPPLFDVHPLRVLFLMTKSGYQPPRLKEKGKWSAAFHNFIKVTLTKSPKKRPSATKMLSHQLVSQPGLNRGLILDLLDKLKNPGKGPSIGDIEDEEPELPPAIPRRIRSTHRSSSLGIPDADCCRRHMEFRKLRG
The term Ki denotes a measure of affinity in units of concentration, obtained from inhibition or displacement. The molecule `CC(C)C1CN(C(=O)c2cccc(-c3cnc4c(c3)C3(CC3)CN4)c2F)C1` [Compound 139, (3-(1′,2′-dihydrospiro[cyclopropane-1,3′-pyrrolo[2,3-b]pyridin]-5′-yl)-2-fluorophenyl)(3-isopropylazetidin-1-yl)methanone] showed a Ki of 120 nM.

`CN(C(=O)c1cccc(-c2cnc3c(c2)C2(CC2)CN3)c1F)c1cnn(C)c1` [Compound 141, 3-(1′,2′-dihydrospiro[cyclopropane-1,3′-pyrrolo[2,3-b]pyridin]-5′-yl)-2-fluoro-N-methyl-N-(1-methyl-1H-pyrazol-4-yl)benzamide] showed a Ki of 126 nM.

`CC1CN(C(=O)c2cccc(-c3cnc4c(c3)C3(CC3)CN4)c2F)C1` [Compound 142, (3-(1′,2′-dihydrospiro[cyclopropane-1,3′-pyrrolo[2,3-b]pyridin]-5′-yl)-2-fluorophenyl)(3-methylazetidin-1-yl)methanone] gave a Ki of 116 nM.

In turn, `CN(C)C(=O)c1c(N)ccc(-c2cnc3c(c2Cl)[C@]2(CC[C@@H](O)CC2)CN3)c1F` [Compound 144a, 6-Amino-3-((1r,4r)-4′-chloro-4-hydroxy-1′,2′-dihydrospiro[cyclohexane-1,3′-pyrrolo[2,3-b]pyridin]-5′-yl)-2-fluoro-N,N-dimethylbenzamide] displayed a Ki of 39.6 nM.

With `CN(C)C(=O)c1c(N)ccc(-c2cnc3c(c2Cl)[C@]2(CC[C@H](O)CC2)CN3)c1F` [Compound 144b, 6-Amino-3-((1s,4s)-4′-chloro-4-hydroxy-1′,2′-dihydrospiro[cyclohexane-1,3′-pyrrolo[2,3-b]pyridin]-5′-yl)-2-fluoro-N,N-dimethylbenzamide], the Ki stood at 9.98 nM.

For `CN(C)C(=O)c1c(N)ccc(-c2cnc3c(c2Cl)C2(CCC(c4cccnc4)C2)CN3)c1F` (stereo not shown) [Compound 145, 6-Amino-3-(4′-chloro-3-(pyridin-3-yl)-1′,2′-dihydrospiro[cyclopentane-1,3′-pyrrolo[2,3-b]pyridin]-5′-yl)-2-fluoro-N,N-dimethylbenzamide], the affinity, expressed as Ki, was 9.37 nM.

Consider `CN(C)C(=O)c1c(N)ccc(-c2cnc3c(c2Cl)[C@]2(CC[C@@H](c4cccnc4)C2)CN3)c1F` [Compound 145a, 6-Amino-3-((1R,3R)-4′-chloro-3-(pyridin-3-yl)-1′,2′-dihydrospiro[cyclopentane-1,3′-pyrrolo[2,3-b]pyridin]-5′-yl)-2-fluoro-N,N-dimethylbenzamide], for which the Ki turned out to be 9.94 nM.

`CN(C)C(=O)c1c(N)ccc(-c2cnc3c(c2Cl)[C@]2(CC[C@H](c4cccnc4)C2)CN3)c1F` [Compound 145c, 6-Amino-3-((1R,3S)-4′-chloro-3-(pyridin-3-yl)-1′,2′-dihydrospiro[cyclopentane-1,3′-pyrrolo[2,3-b]pyridin]-5′-yl)-2-fluoro-N,N-dimethylbenzamide] gave a Ki of 10.4 nM.

Molecule `CN(C)C(=O)c1c(N)ccc(-c2cnc3c(c2Cl)[C@@]2(CC[C@@H](c4cccnc4)C2)CN3)c1F` [Compound 145d, 6-Amino-3-((1S,3R)-4′-chloro-3-(pyridin-3-yl)-1′,2′-dihydrospiro[cyclopentane-1,3′-pyrrolo[2,3-b]pyridin]-5′-yl)-2-fluoro-N,N-dimethylbenzamide] came in with a Ki of 19.9 nM.

Turning to `O=C(c1cccc(-c2cnc3c(c2)C2(CC2)CN3)c1F)N1CCC12COC2` [Compound 147, (3-(1′,2′-dihydrospiro[cyclopropane-1,3′-pyrrolo[2,3-b]pyridin]-5′-yl)-2-fluorophenyl)(6-oxa-1-azaspiro[3.3]heptan-1-yl)methanone], the Ki is 61.3 nM.

`Cc1cnn([C@H]2CC[C@]3(CC2)CNc2ncc(-c4ccc(N)c(C(=O)N(C)C)c4F)c(Cl)c23)c1` [Compound 148a, 6-Amino-3-((1s,4s)-4′-chloro-4-(4-methyl-1H-pyrazol-1-yl)-1′,2′-dihydrospiro[cyclohexane-1,3′-pyrrolo[2,3-b]pyridin]-5′-yl)-2-fluoro-N,N-dimethylbenzamide] returned a Ki of 2.21 nM.

Regarding `CN(C)C(=O)c1cccc(-c2cnc3c(c2)C2(CC2)CN3)c1F` [Compound 149, 3-(1′,2′-dihydrospiro[cyclopropane-1,3′-pyrrolo[2,3-b]pyridin]-5′-yl)-2-fluoro-N,N-dimethylbenzamide], the Ki was determined as 33.5 nM.

Molecule `N#C[C@H]1CCCN1C(=O)c1cccc(-c2cnc3c(c2)C2(CC2)CN3)c1F` [Compound 154a, (R)-1-(3-(1′,2′-dihydrospiro[cyclopropane-1,3′-pyrrolo[2,3-b]pyridin]-5′-yl)-2-fluorobenzoyl)pyrrolidine-2-carbonitrile] returned a Ki of 14.2 nM.

Molecule `Cc1ccnn1[C@H]1CC[C@@]2(CNc3ncc(-c4ccc(N)c(C(=O)N(C)C)c4F)c(Cl)c32)C1` [Compound 160a, 6-Amino-3-((1R,3S)-4′-chloro-3-(5-methyl-1H-pyrazol-1-yl)-1′,2′-dihydrospiro[cyclopentane-1,3′-pyrrolo[2,3-b]pyridin]-5′-yl)-2-fluoro-N,N-dimethylbenzamide] had a Ki of 56.5 nM.

The molecule `CN(Cc1cnn(C)c1)C(=O)c1c(N)ccc(-c2cnc3c(c2Cl)C2(CC2)CN3)c1F` [Compound 166, 6-Amino-3-(4′-chloro-1′,2′-dihydrospiro[cyclopropane-1,3′-pyrrolo[2,3-b]pyridin]-5′-yl)-2-fluoro-N-methyl-N-((1-methyl-1H-pyrazol-4-yl)methyl)benzamide] gave a Ki of 4.39 nM.

For the molecule `CN(C)C(=O)c1c(N)ccc(-c2cnc3c(c2Cl)[C@]2(CC[C@H](n4nccc4C(F)(F)F)C2)CN3)c1F` [Compound 169a, 6-Amino-3-((1R,3S)-4′-chloro-3-(5-(trifluoromethyl)-1H-pyrazol-1-yl)-1′,2′-dihydrospiro[cyclopentane-1,3′-pyrrolo[2,3-b]pyridin]-5′-yl)-2-fluoro-N,N-dimethylbenzamide], affinity was put at a Ki of 54 nM.

Molecule `O=C(c1cccc(-c2cnc3c(c2)C2(CC2)CN3)c1F)N1CCc2ccccc21` [Compound 172, (3-(1′,2′-dihydrospiro[cyclopropane-1,3′-pyrrolo[2,3-b]pyridin]-5′-yl)-2-fluorophenyl)(indolin-1-yl)methanone] came in with a Ki of 319 nM.

`O=C(c1cccc(-c2cnc3c(c2)C2(CC2)CN3)c1F)N1CCc2ccncc21` [Compound 176, (2,3-dihydro-1H-pyrrolo[2,3-c]pyridin-1-yl)(3-(1′,2′-dihydrospiro[cyclopropane-1,3′-pyrrolo[2,3-b]pyridin]-5′-yl)-2-fluorophenyl)methanone] returned a Ki of 127 nM.

`OCc1ccc(-c2cnc3c(c2Cl)C2(CC=CC2)CN3)cc1` [Compound 181, (4-(4′-Chloro-1′,2′-dihydrospiro[cyclopentane-1,3′-pyrrolo[2,3-b]pyridin]-3-en-5′-yl)phenyl)methanol] showed a Ki of 198 nM.

The molecule `CC(C)(O)c1ccc(-c2cnc3c(c2Cl)C2(CC=CC2)CN3)cc1` [Compound 182, 2-(4-(4′-Chloro-1′,2′-dihydrospiro[cyclopentane-1,3′-pyrrolo[2,3-b]pyridin]-3-en-5′-yl)phenyl)propan-2-ol] yielded a Ki of 829 nM.

`CS(=O)(=O)c1cccc(-c2cnc3c(c2Cl)C2(CC=CC2)CN3)c1` [Compound 183] registered an inhibitory constant (Ki) of 30.3 nM.

In turn, `CCS(=O)(=O)c1cccc(-c2cnc3c(c2Cl)C2(CC=CC2)CN3)c1` [Compound 184, 4′-Chloro-5′-(3-(ethylsulfonyl)phenyl)-1′,2′-dihydrospiro[cyclopentane-1,3′-pyrrolo[2,3-b]pyridin]-3-ene] registered a Ki of 50.3 nM.

Values taken from patent publication US12208088B2 (Genentech, Inc., priority 2018, dated 2025).
